Test system: SEM cells
Assay: cell viability relative to DMSO control; higher = less cytotoxic
Conditions: 48 h
How it was run: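 Viability, reported as a per-plate percentage of DMSO wells with cell-free wells as background, came from CellTiter-Glo One luminescence. Reading took place after 48 h at 37°C. Before that, NOMO1 or SEM (500 cells/well) or P12-Ichikawa (1000 cells/well) leukemia cells, adapted for at least four passages in each medium, were seeded in 1536-well plates (5 μl) and pin-dosed with library compounds in DMSO, 47 μM to 0.79 nM over 11 threefold points.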

[1] = HPLM + 10% dialyzed FBS, 0.000781 µM
[2] = HPLM + 10% dialyzed FBS, 0.00234 µM
[3] = HPLM + 10% dialyzed FBS, 0.00702 µM
[4] = HPLM + 10% dialyzed FBS, 0.0211 µM
[5] = HPLM + 10% dialyzed FBS, 0.0632 µM
[6] = HPLM + 10% dialyzed FBS, 0.19 µM
[7] = HPLM + 10% dialyzed FBS, 0.569 µM
[8] = HPLM + 10% dialyzed FBS, 1.71 µM
[9] = HPLM + 10% dialyzed FBS, 5.12 µM
[10] = HPLM + 10% dialyzed FBS, 15.4 µM
[11] = HPLM + 10% dialyzed FBS, 46.1 µM
[12] = RPMI 5 mM glucose + 10% FBS, 0.000781 µM
[13] = RPMI 5 mM glucose + 10% FBS, 0.00234 µM
[14] = RPMI 5 mM glucose + 10% FBS, 0.00702 µM
[15] = RPMI 5 mM glucose + 10% FBS, 0.0211 µM
[16] = RPMI 5 mM glucose + 10% FBS, 0.0632 µM
[17] = RPMI 5 mM glucose + 10% FBS, 0.19 µM
[18] = RPMI 5 mM glucose + 10% FBS, 0.569 µM
[19] = RPMI 5 mM glucose + 10% FBS, 1.71 µM
[20] = RPMI 5 mM glucose + 10% FBS, 5.12 µM
[21] = RPMI 5 mM glucose + 10% FBS, 15.4 µM
[22] = RPMI 5 mM glucose + 10% FBS, 46.1 µM
[23] = RPMI 5 mM glucose + 10% dialyzed FBS, 0.000781 µM
[24] = RPMI 5 mM glucose + 10% dialyzed FBS, 0.00234 µM
[25] = RPMI 5 mM glucose + 10% dialyzed FBS, 0.00702 µM
[26] = RPMI 5 mM glucose + 10% dialyzed FBS, 0.0211 µM
[27] = RPMI 5 mM glucose + 10% dialyzed FBS, 0.0632 µM
[28] = RPMI 5 mM glucose + 10% dialyzed FBS, 0.19 µM
[29] = RPMI 5 mM glucose + 10% dialyzed FBS, 0.569 µM
[30] = RPMI 5 mM glucose + 10% dialyzed FBS, 1.71 µM
[31] = RPMI 5 mM glucose + 10% dialyzed FBS, 5.12 µM
[32] = RPMI 5 mM glucose + 10% dialyzed FBS, 15.4 µM
[33] = RPMI 5 mM glucose + 10% dialyzed FBS, 46.1 µM

| SMILES | cell viability [1] | cell viability [2] | cell viability [3] | cell viability [4] | cell viability [5] | cell viability [6] | cell viability [7] | cell viability [8] | cell viability [9] | cell viability [10] | cell viability [11] | cell viability [12] | cell viability [13] | cell viability [14] | cell viability [15] | cell viability [16] | cell viability [17] | cell viability [18] | cell viability [19] | cell viability [20] | cell viability [21] | cell viability [22] | cell viability [23] | cell viability [24] | cell viability [25] | cell viability [26] | cell viability [27] | cell viability [28] | cell viability [29] | cell viability [30] | cell viability [31] | cell viability [32] | cell viability [33] |
| --- | --- | --- | --- | --- | --- | --- | --- | --- | --- | --- | --- | --- | --- | --- | --- | --- | --- | --- | --- | --- | --- | --- | --- | --- | --- | --- | --- | --- | --- | --- | --- | --- | --- |
| CN1[C@@H]2CC[C@H]1CC(OC(=O)c1c[nH]c3ccccc13)C2 (some centres not stated) | 111% | 109% | 118% | 25.9% | 130% | 130% | 126% | 117% | 114% | 114% | 124% | 113% | 115% | 124% | 17.8% | 123% | 116% | 111% | 119% | 137% | 98.6% | 93.6% |  |  |  |  |  |  |  |  |  |  |  |
| CN\1C(=O)/C(=C(\N=C1N2CCCC[S+]2([O-])=O)C(=O)NCC3=CC=C(F)C=C3)O | 98.9% | 107% | 104% | 97.3% | 98.5% | 96.6% | 96.9% | 107% | 98.3% | 109% | 91.2% |  |  |  |  |  |  |  |  |  |  |  | 104% | 95.1% | 103% | 116% | 121% | 97.8% | 107% | 111% | 85.5% | 111% | 95.3% |
| COc1ccc(Cc2ccc(NC(N)=O)cc2)cc1-c1cccc(Cl)c1 | 106% | 104% | 110% | 95.4% | 122% | 123% | 106% | 119% | 120% | 122% | 106% | 100% | 102% | 101% | 117% | 110% | 113% | 113% | 115% | 113% | 115% | 103% | 107% | 111% | 113% | 123% | 124% | 122% | 108% | 111% | 120% | 108% | 87.3% |
| C[C@]12C[C@H](O)[C@H]3[C@@H](CC\C4=C\C(=O)\C=C/[C@]34C)[C@@H]1CC[C@]2(O)C(=O)CO | 113% | 112% | 119% | 118% | 129% | 118% | 98.6% | 102% | 44.8% | 67.2% | 22.6% | 118% | 115% | 114% | 143% | 123% | 127% | 107% | 90.1% | 40.9% | 64.9% | 19.6% |  |  |  |  |  |  |  |  |  |  |  |
| NC[C@H]1CC[C@H](C(=O)O)CC1 | 58.2% | 128% | 113% | 111% | 119% | 131% | 123% | 124% | 113% | 111% | 104% |  |  |  |  |  |  |  |  |  |  |  | 56.4% | 110% | 106% | 126% | 106% | 104% | 99.9% | 116% | 99.7% | 102% | 92.7% |
| CN(c1ncccc1CNc1nc(Nc2ccc3c(c2)CC(=O)N3)ncc1C(F)(F)F)[S+](C)(=O)[O-] |  |  |  |  |  |  |  |  |  |  |  | 120% | 122% | 140% | 129% | 129% | 92.7% | 99% | 91.3% | 13% | 18.9% | 4.29% | 112% | 125% | 122% | 119% | 140% | 119% | 111% | 17.1% | 11.8% | 11.6% | 3.18% |
| CC(C)n1c(/C=C/[C@H](O)C[C@H](O)CC(=O)O)c(-c2ccc(F)cc2)c2ccccc21 | 102% | 99.3% | 123% | 107% | 125% | 129% | 105% | 99.2% | 85% | 83.4% | 37.9% | 103% | 105% | 126% | 107% | 116% | 113% | 106% | 103% | 95.5% | 60.7% | 19% | 92.9% | 90.7% | 129% | 112% | 126% | 129% | 129% | 116% | 101% | 83.8% | 26.8% |
| COc1cc2c(cc1OC)C1CC(=O)C(CC(C)C)CN1CC2 (configuration not stated) | 84.5% | 116% | 99.6% | 107% | 98.4% | 100% | 118% | 110% | 112% | 103% | 96.5% | 116% | 114% | 110% | 118% | 103% | 110% | 114% | 118% | 118% | 116% | 109% | 120% | 140% | 113% | 117% | 97.1% | 129% | 111% | 129% | 124% | 119% | 103% |
| C[C@H](O)[C@H]1[C@@H]2[C@H](C)C(=C(\N2C1=O)C(O)=O)/S[C@@H]3CN[C@H](CN[S+](N)([O-])=O)C3 | 116% | 121% | 122% | 130% | 132% | 113% | 108% | 108% | 100% | 108% | 111% | 124% | 123% | 136% | 128% | 132% | 115% | 125% | 112% | 120% | 118% | 109% |  |  |  |  |  |  |  |  |  |  |  |
| C[C@]12CC[C@@H]3c4ccc(OC(=O)N(CCCl)CCCl)cc4CC[C@H]3[C@@H]1CC[C@@H]2OP(=O)([O-])[O-].[Na+].[Na+] | 107% | 107% | 120% | 109% | 106% | 105% | 104% | 108% | 66.8% | 62.5% | 63.2% | 101% | 118% | 120% | 99.2% | 118% | 115% | 87.9% | 90.5% | 68.1% | 65.4% | 27.5% | 111% | 112% | 102% | 85.3% | 110% | 93.9% | 83.4% | 76.3% | 67.5% | 65.3% | 54.9% |
| ClC1=C(N\C2=N\CCN2)C3=NSN=C3C=C1 | 77.6% | 91.6% | 107% | 69.7% | 97.8% | 105% | 102% | 111% | 115% | 116% | 113% | 93.7% | 111% | 115% | 74.6% | 121% | 114% | 114% | 109% | 117% | 126% | 126% | 94.2% | 105% | 110% | 69.1% | 120% | 122% | 129% | 121% | 118% | 137% | 137% |

— the supplement of paper PMC11451515
